In this assay the test system is primary human bronchial epithelial cells (HBECs). Put plainly: ALI differentiation of HBECs with IL-13, immunofluorescence/histology readout. It is filed as cell-based. The settings on record: IL-13 treatment during ALI differentiation, day 14, 1 ng/mL. The protocol:
FIG. 14A illustrates an experimental scheme of culturing the undifferentiated basal cells known as primary human bronchial epithelial cells (HBECs) at the air-liquid interface in the presence or absence of IL-13 and the perturbagens. […] Pseudostratified airway epithelium was formed by day 14 of ALI differentiation in the presence of 1 ng/mL of […]. Total mucus (AB/PAS), goblet cells (Muc5ac^+), and ciliated cells (acetyl α-tubulin^+) were visualized via immunofluorescence or histology. For histology analysis, the differentiated HBECs on day 14 of ALI were stained with AB/PAS, Muc5ac, and acetyl α-tubulin. […] Immunofluorescence allows for a top down view of the most apical layer of cells, while histology presents a cross-section of the pseudostratified epithelium and is amenable for image quantification.
Using scRNA-seq data, Compound B1 was predicted to inhibit goblet cells and promote club cells within the top 1.2% of compounds of the intervention library. […] Goblet and club cells were assessed by Muc5ac and Scgblal primers, respectively. […] Goblet and ciliated cells were assessed by Muc5ac and Foxj1 primers, respectively. […]
Pseudostratified airway epithelium was formed by day 14 of ALI differentiation. […] In addition, qPCR of ciliated (Foxj1) and goblet (Muc5ac) marker expression was used as a sensitive and quantitative readout of epithelial cell type distribution. […]

The values below come from US20220399129A1, “SYSTEMS AND METHODS FOR TERRAFORMING” (Flagship Pioneering Innovations VI, LLC, priority 2021, published 2022).

“IL-13: inflammatory signaling cytokine (R&D) used to induce goblet cell hyperplasia”: the “ciliated cells (acetyl α-tubulin+)” value is recorded as “reduces ciliated cells” and the “goblet cells (Muc5ac+), total mucus (AB/PAS)” value was “induces goblet cell hyperplasia”.
